Source: patent US20090137496A1, “Use of Active Ingredients Containing Hydroxystilbene for Preventing and/or Treating Osteoporosis” (MATSUSHITA ELECTRIC INSUTRIAL CO., LTD., priority 2005, published 2009)
“Also recorded” adds a separate entry of the source.

Tests used:
[1] = Dissolving tests with ERr 731 in ethanol and glycerol; format: physicochemical
[2] = Accumulation of ERr 731 ingredients in dog plasma, 100/300/1000 mg/kg/day, day 1; format: in vivo, dog (beagle); details: male and female dogs, ERr 731 100, 300, 1000 mg/kg/day, day 1
Description: (§1) These plasma samples were processed as follows: 500 μl of plasma were mixed with 25 μl of an internal standard working solution (2.5 ng/μl rhaponticin or rhapontigenin in methanol) and then mixed with 500 μl of isotonic NaCl solution and 2.5 ml of diethyl ether/butanol (9/1; v/v). After shaking and centrifugation (10 minutes at 4600 rpm), about 2 ml of the supernatant were removed and dried under a stream of nitrogen (at 60° C.). The pellet was taken up in 50 μl of methanol. Addition of 200 μl of distilled water was followed by renewed mixing, and 200 μl were pipetted into autosampler tubes (light-protected). 30 μl of the samples were injected for analysis into an LC-MS/MS system (PE Sciex API 3000). Chromatographic separation of the analytes took place on a Phenomenex Polymer X column with a gradient of an ammonium buffer solution and an acetonitrile/methanol mixture as mobile phase.
On day 1, 5 ml of blood were taken from the animals after 0, 0.5, 1, 2, 4, 8 and 24 hours in each case, and plasma was obtained. The analysis as described in section a) was carried out thereon in order to detect rhaponticin, deoxyrhaponticin, rhapontigenin, deoxyrhapontigenin, resveratrol and piceatannol in blood. The results of the test are depicted in FIG. 2a.

ERβ = molecular target: T1, ERβ (Homo sapiens, UniProt Q92731); test: ERβ activation in the osteosarcoma cell line U2OS; format: cell-based
T1 construct: host or cells: U2OS (human osteosarcoma)

ERα = molecular target: T2, ERα (Homo sapiens, UniProt P03372); test: ERα activation, luciferase reporter gene in U2OS-ERα osteosarcoma cells; format: cell-based; details: U2OS stably transfected with ERα, 24 h
T2 construct: host or cells: U2OS-ERα (human osteosarcoma), stably transfected, pSG5 vector
T2 sequence (P03372 1-595): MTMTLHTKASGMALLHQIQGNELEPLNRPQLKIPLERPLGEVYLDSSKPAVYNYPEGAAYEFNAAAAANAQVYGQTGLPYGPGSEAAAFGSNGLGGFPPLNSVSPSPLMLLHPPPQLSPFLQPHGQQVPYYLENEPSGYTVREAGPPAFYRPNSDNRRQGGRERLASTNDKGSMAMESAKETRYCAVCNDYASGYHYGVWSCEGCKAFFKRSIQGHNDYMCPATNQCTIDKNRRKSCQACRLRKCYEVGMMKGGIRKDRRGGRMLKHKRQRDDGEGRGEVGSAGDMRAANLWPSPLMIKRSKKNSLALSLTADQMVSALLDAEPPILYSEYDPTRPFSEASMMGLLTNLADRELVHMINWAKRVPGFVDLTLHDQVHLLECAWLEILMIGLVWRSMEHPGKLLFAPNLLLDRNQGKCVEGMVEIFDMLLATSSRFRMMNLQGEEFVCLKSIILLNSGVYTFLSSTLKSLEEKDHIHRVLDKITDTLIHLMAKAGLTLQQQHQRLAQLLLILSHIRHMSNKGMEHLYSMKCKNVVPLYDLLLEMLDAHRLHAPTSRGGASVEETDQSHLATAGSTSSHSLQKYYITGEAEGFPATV
Description: U2OS cells are human, epithelially organized osteosarcoma cells originally isolated in 1964 from the tibia of a child by J. Ponten and E. Saksela (Ponten and Saksela 1967: Two established in vitro cell lines from human mesenchymal tumours, Int. J. Cancer 2: 434-447).
A suitable medium for the cells is DMEM/F12 (Dulbecco's modified Eagle's Medium), to which 10% fetal calf serum was added for culturing the cells, and 5% fetal calf serum was added for the actual experiment. The latter was previously made steroid-free (DCC medium) using dextran-coated activated carbon (dextran-coated charcoal; DCC). Incubation took place at 37° C. with 5% v/v CO2. In order to ensure comparability between the individual experiments, the passages of the cells used for the experiments never exceeded 20 after thawing from liquid nitrogen.
Besides native U2OS cells, use was made of U2OS-ERα cells (Schering A G, Berlin) which were stably transfected with ERα (pSG5 vector, Stratagene) and merely required transfection with the reporter gene (ERE)2-tk-Luc (pGL3 basic vector, Promega). […]
After the cells were treated with the test or control substances for 24 h it was possible to measure the luciferase activity as reporter gene using a kit from Promega, as stated by the manufacturer. The protein content was determined using the BCA® kit (Sigma).

[3] = Pharmacokinetics of ERr 731 ingredients in the blood of a volunteer after oral intake (plasma LC-MS/MS); format: in vivo, human; details: for detection in the blood: oral 10 tablets = 40 mg ERr 731, plasma
Description: Subsequently, 10 ml of blood was taken at various times (as indicated in FIG. 1) and the plasma was obtained by centrifugation.
as §1

Solubility statements = format: physicochemical
Source text: Use is made of this for its isolation. Since, besides other organic acids, the root in particular has a high content of oxalic acid (⅔ in water-soluble and ⅓ in bound form), this must be neutralized during the isolation in order to prevent the pH drifting into the acidic range and thus to inhibit premature precipitation of the rhaponticin. This is achieved by using calcium oxide. The latter is employed as quicklime solution with a pH of 12.4-12.6.
Hydroxypropylmethylcellulose (hypromellose USP) or another gel former is allowed to swell with 2-10% by weight in purified water. […] The amount of glycerol may be up to 50% of the weight of the gel. […] If necessary, preservatives (e.g. sorbic acid and its salts) can be added to the gel. Adjustment of the pH is also possible. As alternative to glycerol it is also possible to use 30-86% by volume ethanol.

[4] = Test A: 200 mg of dry extract in 50 ml of glycerol R
[5] = Test B: 200 mg of dry extract in 50 ml of ethanol 30% R
[6] = Test C: 200 mg of dry extract in 50 ml of ethanol 50% R
[7] = Test D: 200 mg of dry extract in 50 ml of ethanol 86% R

T1 sequence (Q92731 whole entry): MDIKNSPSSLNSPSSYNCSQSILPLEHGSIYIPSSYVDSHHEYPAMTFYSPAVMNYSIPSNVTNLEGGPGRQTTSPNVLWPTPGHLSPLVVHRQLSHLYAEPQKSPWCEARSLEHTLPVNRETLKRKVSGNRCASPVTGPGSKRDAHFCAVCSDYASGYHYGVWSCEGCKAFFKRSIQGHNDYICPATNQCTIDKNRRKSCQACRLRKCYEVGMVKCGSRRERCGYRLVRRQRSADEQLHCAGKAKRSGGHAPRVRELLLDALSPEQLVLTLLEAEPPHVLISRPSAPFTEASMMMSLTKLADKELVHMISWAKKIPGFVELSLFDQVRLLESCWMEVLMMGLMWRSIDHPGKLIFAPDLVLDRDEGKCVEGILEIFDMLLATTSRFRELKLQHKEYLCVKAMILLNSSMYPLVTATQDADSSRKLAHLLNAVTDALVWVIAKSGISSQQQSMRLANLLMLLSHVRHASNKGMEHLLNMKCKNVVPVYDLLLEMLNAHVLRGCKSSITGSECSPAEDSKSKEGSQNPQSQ

Structure (SMILES)	content found in solution [1, 4]	dissolved, of theory [1, 4]	content found in solution [1, 5]	dissolved, of theory [1, 5]	content found in solution [1, 6]	dissolved, of theory [1, 6]	content found in solution [1, 7]	dissolved, of theory [1, 7]	detection / accumulation (AUC 0-24 h) in dog plasma [2]	activation of ERβ (ERβ)	activation of ER-α (ERα)	time of maximum in the blood ([3]; oral 40 mg ERr 731) [h]	detection in the blood [3]	solubility in aqueous solutions with an alkaline pH range (Solubility statements; alkaline pH)	behaviour in the acidic pH range (Solubility statements; pH 3.4-3.6)
COc1ccc(/C=C/c2cc(O)cc(O[C@@H]3O[C@H](CO)[C@@H](O)[C@H](O)[C@H]3O)c2)cc1 [deoxyrhaponticin, 3,5′-Dihydroxy-4′-methoxystilbene 3-O-β-D-glucopyranoside]	27.1% deoxyrhaponticin	(90.6% of theory)	25.2% deoxyrhaponticin	(84.2% of theory)	29.0% deoxyrhaponticin	(97.0% of theory)	29.5% deoxyrhaponticin	(98.7% of theory)	dose-dependent accumulation	–	–	–	–	–	–
Oc1cc(O)cc(/C=C/c2ccc(O)c(O)c2)c1 [piceatannol, Piceatannol (astringenin)]	–	–	–	–	–	–	–	–	–	activate relatively specifically only the ERβ	no significant effects; also recorded: no activation	–	–	–	–
Oc1ccc(/C=C/c2cc(O)cc(O)c2)cc1 [resveratrol, Resveratrol]	–	–	–	–	–	–	–	–	–	–	no significant effects; also recorded: no activation	–	–	–	–
COc1ccc(C=Cc2cc(O)cc(O[C@@H]3O[C@H](CO)[C@@H](O)[C@H](O)[C@H]3O)c2)cc1O [rhaponticin, 3,3′,5-Trihydroxy-4′-methoxystilbene 3-O-β-D-glucopyranoside]	55.1% rhaponticin	(89.0% of theory)	52.2% rhaponticin	(84.3% of theory)	58.8% rhaponticin	(95.0% of theory)	59.8% rhaponticin	(96.6% of theory)	dose-dependent accumulation	–	–	3 to 4	detected; also recorded: detectable	readily soluble	precipitated
COc1ccc(/C=C/c2cc(O)cc(O)c2)cc1O [rhapontigenin, 3,3′,5-Trihydroxy-4′-methoxystilbene]	–	–	–	–	–	–	–	–	undetectable	–	–	–	could not be found and not	–	–
